Assay results taken from patent publication US8134015B2, “Compound inhibiting in vivo phosphorous transport and medicine containing the same” (Kyowa Hakko Kirin Co., Ltd., priority 2003, dated 2012).

Assays:
[1] = target: T1, rat NaPi-2b (Rattus norvegicus, UniProt Q9JJ09); experiment: Sodium-dependent phosphate uptake of Xenopus oocytes which expressed NaPi-2b (32P); format: cell-based; settings: for IC50: Xenopus oocytes expressing rat NaPi-2b, 32P radioactive phosphorus, read-out: IC50 (phosphate uptake inhibitory activity); for inhibition at 300 µM: phosphate uptake, oocytes expressing rat NaPi-2b, determined from inhibition curve
T1 construct: expressed in transfected cells; host or cells: Xenopus oocytes injected with cRNA
T1 sequence (Q9JJ09 1-695): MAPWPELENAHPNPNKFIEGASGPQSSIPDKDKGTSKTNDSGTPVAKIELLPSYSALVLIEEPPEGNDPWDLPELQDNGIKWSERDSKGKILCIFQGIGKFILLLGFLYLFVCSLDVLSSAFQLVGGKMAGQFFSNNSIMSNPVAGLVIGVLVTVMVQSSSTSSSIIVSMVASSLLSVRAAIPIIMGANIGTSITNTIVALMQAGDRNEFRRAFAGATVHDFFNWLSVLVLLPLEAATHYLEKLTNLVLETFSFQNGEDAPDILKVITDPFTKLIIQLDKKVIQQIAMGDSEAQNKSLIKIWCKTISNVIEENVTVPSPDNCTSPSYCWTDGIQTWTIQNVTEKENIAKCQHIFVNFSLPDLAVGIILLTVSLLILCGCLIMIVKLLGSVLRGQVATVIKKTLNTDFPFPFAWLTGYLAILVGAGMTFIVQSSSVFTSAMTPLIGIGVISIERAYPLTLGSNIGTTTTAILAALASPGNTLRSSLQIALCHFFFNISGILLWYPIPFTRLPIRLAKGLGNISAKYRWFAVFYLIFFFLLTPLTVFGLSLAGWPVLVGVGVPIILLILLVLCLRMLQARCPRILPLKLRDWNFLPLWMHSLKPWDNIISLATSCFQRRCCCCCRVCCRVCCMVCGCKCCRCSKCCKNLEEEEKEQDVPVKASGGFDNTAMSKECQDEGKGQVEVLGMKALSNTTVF
Method in brief: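 Inhibition at 300 μM and 100 μM was read off one inhibition curve of 32P phosphate uptake. Uptake was measured in Xenopus oocytes cultured 2 days after injection of cRNA for cloned rat NaPi-2b.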

[2] = target: T2, human NaPi-2a (Homo sapiens, UniProt Q06495); experiment: Sodium-dependent phosphate uptake of Xenopus oocytes which expressed NaPi-2a (32P); format: cell-based; settings: phosphate uptake, Xenopus oocytes expressing human NaPi-2a; five concentration levels
T2 construct: expressed in transfected cells
T2 sequence (Q06495 1-639): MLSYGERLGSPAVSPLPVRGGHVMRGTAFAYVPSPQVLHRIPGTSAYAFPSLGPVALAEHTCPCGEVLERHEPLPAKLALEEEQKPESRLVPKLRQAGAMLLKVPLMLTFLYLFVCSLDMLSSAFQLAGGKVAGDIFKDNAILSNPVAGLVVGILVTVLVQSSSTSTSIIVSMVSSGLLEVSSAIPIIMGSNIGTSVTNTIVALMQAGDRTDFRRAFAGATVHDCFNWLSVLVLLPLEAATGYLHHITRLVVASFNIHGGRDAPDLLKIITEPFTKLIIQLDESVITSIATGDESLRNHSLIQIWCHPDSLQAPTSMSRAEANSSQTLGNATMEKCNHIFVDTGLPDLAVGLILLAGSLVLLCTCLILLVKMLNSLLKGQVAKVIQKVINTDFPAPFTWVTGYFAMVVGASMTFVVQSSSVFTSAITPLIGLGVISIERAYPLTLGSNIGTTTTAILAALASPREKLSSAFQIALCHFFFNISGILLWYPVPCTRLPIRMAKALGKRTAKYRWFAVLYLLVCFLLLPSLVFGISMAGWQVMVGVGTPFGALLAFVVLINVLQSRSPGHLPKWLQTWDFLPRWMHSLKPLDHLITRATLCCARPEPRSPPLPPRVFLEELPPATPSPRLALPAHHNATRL
Text: Experiment of Sodium-Dependent Phosphate Uptake of Xenopus oocytes which Expressed NaPi-2a
In the test, a group with the addition of choline chloride (Choline Cl) was used as a negative control for nonspecific uptake, and PFA (phosphonoformic acid) was used as a positive control for phosphate transport inhibition.

| IC50 [1] [nM] | IC50 [2] [nM] | inhibition at 300 µM [1] [%] | Structure (SMILES) |
| --- | --- | --- | --- |
| 7890 | 38100 | – | Cc1ccc(/C=N/NC(=O)c2c(C)csc2NC(=O)c2cccc(CN3CCC4(CC3)OCCO4)c2)cc1 [Compound 833, 3-(1,4-Dioxa-8-aza-spiro[4,5]dec-8-ylmethyl]-N-[4-methyl-3-(4-methyl-benzylidene-hydrazinocarbonyl)-thiophen-2-yl]-benzamide] |
| 1560 | 1340 | – | O=C(Nc1sc2c(c1C(=O)N/N=C/c1ccc(F)cc1)CCCC2)c1cccc(CN2CCC(O)CC2)c1 [Compound 635, N-[3-(4-Fluoro-benzylidene-hydrazinocarbonyl)-4,5,6,7-tetrahydro-benzo[b]thiophen-2-yl]-3-(4-hydroxy-piperidin-1-ylmethyl)-benzamide] |
| < 1000 | 4360 | – | Cc1ccc(/C=N/NC(=O)c2cc(Br)ccc2NC(=O)c2ccc(CSCCO)cc2)cc1 [Compound 264, N-[4-Bromo-2-(4-methyl-benzylidene-hydrazinocarbonyl)-phenyl]-4-(2-hydroxy-ethylsulfanylmethyl)-benzamide] |
| 330 | 4450 | – | O=C(Nc1ccc(N2CCCCC2)cc1C(=O)N/N=C/c1ccc(F)cc1)c1cccc(CSCCO)c1 [Compound 882, N-[2-(4-Fluoro-benzylidene-hydrazinocarbonyl)-4-piperidin-1-yl-phenyl]-3-(2-hydroxy-ethylsulfanylmethyl)-benzamide] |
| < 1000 | < 1000 | – | O=C(Nc1ccc(N2CCCCC2)cc1C(=O)N/N=C/c1cccc(F)c1)c1cccc(CSCC(O)CO)c1 (stereo not shown) [Compound 902, 3-(2,3-Dihydroxy-propylsulfanylmethyl)-N-[2-(3-fluoro-benzylidene-hydrazinocarbonyl)-4-piperidin-1-yl-phenyl]-benzamide] |
| 1220 | 6900 | – | CCN(CC)CCN(C)Cc1cccc(C(=O)Nc2ccc(N3CCCCC3)cc2C(=O)N/N=C/c2ccc(OC)cc2)c1 [Compound 863, 3-{[(2-Diethylamino-ethyl)-methyl-amino]-methyl}-N-[2-(4-methoxy-benzylidene-hydrazinocarbonyl)-4-piperidin-1-yl-phenyl]-benzamide] |
| < 3000 | < 3000 | – | Cc1sc(NC(=O)c2cccc(CN(CC(C)O)CC(C)O)c2)c(C(=O)N/N=C/c2ccc(F)cc2)c1C (stereo not shown) [Compound 846, 3-{[Bis-(2-hydroxy-propyl)-amino]-methyl}-N-[3-(4-fluoro-benzylidene-hydrazinocarbonyl)-4,5-dimethyl-thiophen-2-yl]-benzamide] |
| 810 | 2930 | – | Cc1ccc(/C=N/NC(=O)c2cc(N3CCCCC3)ccc2NC(=O)c2cccc(CSCCC(=O)O)c2)cc1C [Compound 886, 3-{3-[2-(3,4-Dimethyl-benzylidene-hydrazinocarbonyl)-4-piperidin-1-yl-phenylcarbamoyl]-benzylsulfanyl}-propionic acid] |
| 1160 | 9280 | – | Cc1csc(NC(=O)c2cccc(CN(CCO)CCO)c2)c1C(=O)N/N=C/c1cccc(F)c1 [Compound 789, 3-{[Bis-(2-hydroxy-ethyl)-amino]-methyl}-N-[3-(3-fluoro-benzylidene-hydrazinocarbonyl)-4-methyl-thiophen-2-yl]-benzamide] |
| 1710 | 1690 | – | COc1ccc(/C=N/NC(=O)c2cc(N3CCCCC3)ccc2NC(=O)c2cccc(CSCC(O)CO)c2)cc1 (stereo not shown) [Compound 904, 3-(2,3-Dihydroxy-propylsulfanylmethyl)-N-[2-(4-methoxy-benzylidene-hydrazinocarbonyl)-4-piperidin-1-yl-phenyl]-benzamide] |
| 1690 | < 3000 | – | Cc1ccc(/C=N/NC(=O)c2c(C)csc2NC(=O)c2cccc(CN(CCO)CCO)c2)cc1 [Compound 787, 3-{[Bis-(2-hydroxy-ethyl)-amino]-methyl}-N-[4-methyl-3-(4-methyl-benzylidene-hydrazinocarbonyl)-thiophen-2-yl]-benzamide] |
| 3910 | 1330 | – | COc1ccc(/C=N/NC(=O)c2cc(N3CCCCC3)ccc2NC(=O)c2cccc(CSCCC(=O)O)c2)cc1 [Compound 890, 3-{3-[2-(4-Methoxy-benzylidene-hydrazinocarbonyl)-4-piperidin-1-yl-phenylcarbamoyl]-benzylsulfanyl}-propionic acid] |
| < 3000 | 19900 | – | CCN(CC)CCN(CCN(CC)CC)Cc1cccc(C(=O)Nc2scc(C)c2C(=O)N/N=C/c2cccc(F)c2)c1 [Compound 841, 3-{[Bis-(2-diethylamino-ethyl)-amino]-methyl}-N-[3-(3-fluoro-benzylidene-hydrazinocarbonyl)-4-methyl-thiophen-2-yl]-benzamide] |
| < 3000 | 7840 | – | Cc1ccc(/C=N/NC(=O)c2cc(F)ccc2NC(=O)c2cccc(CN(CC(C)O)CC(C)O)c2)cc1 (stereo not shown) [Compound 989, 3-{[Bis-(2-hydroxy-propyl)-amino]-methyl}-N-[4-fluoro-2-(4-methyl-benzylidene-hydrazinocarbonyl)-phenyl]-benzamide] |
| 650 | < 1000 | – | CCN(CC)CCN(C)Cc1cccc(C(=O)Nc2ccc(N3CCCCC3)cc2C(=O)N/N=C/c2ccc(F)cc2)c1 [Compound 860, 3-{[(2-Diethylamino-ethyl)-methyl-amino]-methyl}-N-[2-(4-fluoro-benzylidene-hydrazinocarbonyl)-4-piperidin-1-yl-phenyl]-benzamide] |
| 770 | 10200 | – | Cc1csc(NC(=O)c2cccc(CN3CCC4(CC3)OCCO4)c2)c1C(=O)N/N=C/c1ccc(Cl)c(C(F)(F)F)c1 [Compound 836, N-[3-(4-Chloro-3-trifluoromethyl-benzylidene-hydrazinocarbonyl)-4-methyl-thiophen-2-yl]-3-(1,4-dioxa-8-aza-spiro[4,5]dec-8-ylmethyl]-benzamide] |
| 300 | 2300 | – | Cc1ccc(/C=N/NC(=O)c2cc(Cl)ccc2NC(=O)c2cccc(CSCC(O)CO)c2)cc1 (stereo not shown) [Compound 1008, N-[4-Chloro-2-(4-methyl-benzylidene-hydrazinocarbonyl)-phenyl]-3-(2,3-dihydroxy-propylsulfanylmethyl)-benzamide] |
| 1190 | 13500 | – | Cc1ccc(/C=N/NC(=O)c2c(NC(=O)c3cccc(CN4CCC(O)CC4)c3)sc3c2CCCC3)cc1C [Compound 633, N-[3-(3,4-Dimethyl-benzylidene-hydrazinocarbonyl)-4,5,6,7-tetrahydro-benzo[b]thiophen-2-yl]-3-(4-hydroxy-piperidin-1-ylmethyl)-benzamide] |
| < 3000 | – | – | CCc1ccc(C(=O)Nc2ccc(Br)cc2C(=O)N/N=C/c2cccc(C)c2)cc1 [Compound 180, N-[4-Bromo-2-(3-methyl-benzylidene-hydrazinocarbonyl)-phenyl]-4-ethyl-benzamide] |
| – | – | 30.6 | Cc1cccc(/C=N/NC(=O)c2ccccc2NC(=O)c2ccccc2F)c1 [Compound 238, 2-Fluoro-N-[2-(3-methyl-benzylidene-hydrazinocarbonyl)-phenyl]-benzamide] |
| – | – | 58.4 | Cc1cccc(/C=N/NC(=O)c2cc(Cl)ccc2NC(=O)c2cccc(CSCc3ccco3)c2)c1 [Compound 699, N-[4-Chloro-2-(3-methyl-benzylidene-hydrazinocarbonyl)-phenyl]-3-(furan-2-ylmethylsulfanylmethyl)-benzamide] |
| 4380 | – | – | COc1ccc(C(=O)Nc2ccccc2C(=O)N/N=C/c2cccc(F)c2)cc1 [Compound 47, N-[2-(3-Fluoro-benzylidene-hydrazinocarbonyl)-phenyl]-4-methoxy-benzamide] |
